From patent US4336375A, “Cephalosporanic acid derivatives” (American Cyanamid Company, priority 1980, dated 1982)
Values after ≈ are worked out from the molar mass of the structure shown. Read-outs that look alike come from different tables or passages of the source.

How the values were obtained:
[1] = system: Klebsiella pneumoniae W75-2; assay: In vitro MIC, agar dilution, Klebsiella pneumoniae W75-2; assay type: cell-based; settings: W752; Klebsiella pneumoniae W75-2; agar dilution, 35° C., 18 hours, nutrient agar; read-out: Minimal Inhibitory Concentration
Experimental: (§1) The in vitro activity of representative compounds of the present invention are given in the following Table I in terms of minimal inhibitory concentration. The test used was the standard agar dilution test using a Steers multiple inocula replicator and incubating at 35° C. for 18 hours in conventional nutrient agar.

[2] = system: Pseudomonas aeruginosa 12-4-4; assay: In vitro MIC, agar dilution, Pseudomonas aeruginosa 12-4-4; assay type: cell-based; settings: read-out: Minimal Inhibitory Concentration
Experimental: as §1

[3] = system: Pseudomonas aeruginosa PD05141; assay: In vitro MIC, agar dilution, Pseudomonas aeruginosa PD05141; assay type: cell-based; settings: Pseudomonas aeruginosa PD05141; agar dilution, 35° C., 18 hours, nutrient agar; read-out: Minimal Inhibitory Concentration
Experimental: as §1

Proteus morganii K72 = assay: In vitro MIC, agar dilution, Proteus morganii K72; assay type: cell-based; settings: Morganella morganii; Proteus morganii K72; agar dilution, 35° C., 18 hours, nutrient agar; read-out: Minimal Inhibitory Concentration
Experimental: as §1

[4] = system: Klebsiella pneumoniae MA75-1; assay: In vitro MIC, agar dilution, Klebsiella pneumoniae MA75-1; assay type: cell-based; settings: MA751; Klebsiella pneumoniae MA75-1; agar dilution, 35° C., 18 hours, nutrient agar; read-out: Minimal Inhibitory Concentration
Experimental: as §1

[5] = system: Staphylococcus aureus Q74-1; assay: In vitro MIC, agar dilution, Staphylococcus aureus Q74-1; assay type: cell-based; settings: Q741; Staphylococcus aureus Q74-1; agar dilution, 35° C., 18 hours, nutrient agar; read-out: Minimal Inhibitory Concentration
Experimental: as §1

[6] = system: Klebsiella pneumoniae UR76-1; assay: In vitro MIC, agar dilution, Klebsiella pneumoniae UR76-1; assay type: cell-based; settings: UR761; Klebsiella pneumoniae UR76-1; agar dilution, 35° C., 18 hours, nutrient agar; read-out: Minimal Inhibitory Concentration
Experimental: as §1

Serratia marcens K77-1 = assay: In vitro MIC, agar dilution, Serratia marcens K77-1; assay type: cell-based; settings: K771; Serratia marcens K77-1; agar dilution, 35° C., 18 hours, nutrient agar; read-out: Minimal Inhibitory Concentration
Experimental: as §1

[7] = system: Escherichia coli ESS22-31; assay: In vitro MIC, agar dilution, Escherichia coli ESS22-31; assay type: cell-based; settings: ESS2231; Escherichia coli ESS22-31; agar dilution, 35° C., 18 hours, nutrient agar; read-out: Minimal Inhibitory Concentration
Experimental: as §1

Klebsiella pneumoniae AD = assay: In vitro MIC, agar dilution, Klebsiella pneumoniae AD; assay type: cell-based; settings: Klebsiella pneumoniae AD; agar dilution, 35° C., 18 hours, nutrient agar; read-out: Minimal Inhibitory Concentration
Experimental: as §1

Escherichia coli OSU75-1 = assay: In vitro MIC, agar dilution, Escherichia coli OSU75-1; assay type: cell-based; settings: OSU751, 35° C., 18 hours, nutrient agar, read-out: Minimal Inhibitory Concentration
Experimental: as §1

[8] = system: Pseudomonas aeruginosa UCS 76-13; assay: In vitro MIC, agar dilution, Pseudomonas aeruginosa UCS 76-13; assay type: cell-based; settings: UCS7613; Pseudomonas aeruginosa UCS 76-13; agar dilution, 35° C., 18 hours, nutrient agar; read-out: Minimal Inhibitory Concentration
Experimental: as §1

Serratia marcens QHC77-2 = assay: In vitro MIC, agar dilution, Serratia marcens QHC77-2; assay type: cell-based; settings: QHC772; Serratia marcens QHC77-2; agar dilution, 35° C., 18 hours, nutrient agar; read-out: Minimal Inhibitory Concentration
Experimental: as §1

Serratia K101 = assay: In vitro MIC, agar dilution, Serratia K101; assay type: cell-based; settings: Serratia K101; agar dilution, 35° C., 18 hours, nutrient agar; read-out: Minimal Inhibitory Concentration
Experimental: as §1

Escherichia coli 311 [9] = assay: In vitro MIC, agar dilution, Escherichia coli 311; assay type: cell-based; settings: 35° C., 18 hours, nutrient agar, read-out: Minimal Inhibitory Concentration
Experimental: as §1

Proteus vulgaris N74-1 = assay: In vitro MIC, agar dilution, Proteus vulgaris N74-1; assay type: cell-based; settings: N741, 35° C., 18 hours, nutrient agar, read-out: Minimal Inhibitory Concentration
Experimental: as §1

[10] = system: Klebsiella pneumoniae W75-4; assay: In vitro MIC, agar dilution, Klebsiella pneumoniae W75-4; assay type: cell-based; settings: W754; Klebsiella pneumoniae W75-4; agar dilution, 35° C., 18 hours, nutrient agar; read-out: Minimal Inhibitory Concentration
Experimental: as §1

[11] = system: Pseudomonas aeruginosa G236; assay: In vitro MIC, agar dilution, Pseudomonas aeruginosa G236; assay type: cell-based; settings: read-out: Minimal Inhibitory Concentration
Experimental: as §1

Proteus rettgeri N76-1 = assay: In vitro MIC, agar dilution, Proteus rettgeri N76-1; assay type: cell-based; settings: Providencia rettgeri, N761; Proteus rettgeri N76-1; agar dilution, 35° C., 18 hours, nutrient agar; read-out: Minimal Inhibitory Concentration
Experimental: as §1

[12] = system: Enterobacter cloacae MA75-1; assay: In vitro MIC, agar dilution, Enterobacter cloacae MA75-1; assay type: cell-based; settings: MA751; Enterobacter cloacae MA75-1; agar dilution, 35° C., 18 hours, nutrient agar; read-out: Minimal Inhibitory Concentration
Experimental: as §1

[13] = system: Enterobacter aerogenes UR76-3; assay: In vitro MIC, agar dilution, Enterobacter aerogenes UR76-3; assay type: cell-based; settings: Klebsiella aerogenes, UR763; Enterobacter aerogenes UR76-3; agar dilution, 35° C., 18 hours, nutrient agar; read-out: Minimal Inhibitory Concentration
Experimental: as §1

Escherichia coli W75-1 = assay: In vitro MIC, agar dilution, Escherichia coli W75-1; assay type: cell-based; settings: W751, 35° C., 18 hours, nutrient agar, read-out: Minimal Inhibitory Concentration
Experimental: as §1

[14] = system: Staphylococcus aureus Q74-6; assay: In vitro MIC, agar dilution, Staphylococcus aureus Q74-6; assay type: cell-based; settings: Q746; Staphylococcus aureus Q74-6; agar dilution, 35° C., 18 hours, nutrient agar; read-out: Minimal Inhibitory Concentration
Experimental: as §1

Escherichia coli 311 [15] = assay: In vivo systemic lethal infection of mice, Escherichia coli 311; design: species or system Charles River CD-1 mice; settings: CD-1 mice
Excerpt: As shown in Table II these compounds show high in vivo antibacterial activity against Escherichia coli 311 and Klebsiella pneumoniae W-75-2 when administered by a single subcutaneous dose to groups of Charles River CD-1 mice, weighing about 20 g. each. The mice are infected intraperitoneally with a lethal dose of these bacteria.

Enterococcus SM77-15 = assay: In vitro MIC, agar dilution, Enterococcus SM77-15; assay type: cell-based; settings: SM7715; Enterococcus SM77-15; agar dilution, 35° C., 18 hours, nutrient agar; read-out: Minimal Inhibitory Concentration
Experimental: as §1

[16] = system: Enterobacter cloacae OSU75-2; assay: In vitro MIC, agar dilution, Enterobacter cloacae OSU75-2; assay type: cell-based; settings: OSU752; Enterobacter cloacae OSU75-2; agar dilution, 35° C., 18 hours, nutrient agar; read-out: Minimal Inhibitory Concentration
Experimental: as §1

[17] = single subcutaneous dose 1 mg./kg.
[18] = single subcutaneous dose 2 mg./kg.
[19] = single subcutaneous dose 4 mg./kg.
[20] = single subcutaneous dose 8 mg./kg.

| SMILES | MIC [1] [µg/mL] | MIC [3] [µg/mL] | MIC (Proteus morganii K72) [µg/mL] | MIC [4] [µg/mL] | MIC [5] [µg/mL] | MIC [6] [µg/mL] | MIC (Serratia marcens K77-1) [µg/mL] | MIC [7] [µg/mL] | MIC (Klebsiella pneumoniae AD) [µg/mL] | MIC (Escherichia coli OSU75-1) [µg/mL] | MIC [8] [µg/mL] | MIC (Serratia marcens QHC77-2) [µg/mL] | MIC (Serratia K101) [µg/mL] | MIC (Escherichia coli 311 [9]) [µg/mL] | MIC (Proteus vulgaris N74-1) [µg/mL] | MIC [10] [µg/mL] | MIC (Proteus rettgeri N76-1) [µg/mL] | MIC [12] [µg/mL] | MIC [13] [µg/mL] | MIC (Escherichia coli W75-1) [µg/mL] | other results |
| --- | --- | --- | --- | --- | --- | --- | --- | --- | --- | --- | --- | --- | --- | --- | --- | --- | --- | --- | --- | --- | --- |
| CO/N=C(\C(=O)NC1C(=O)N2C(C(=O)O)=C(CSc3nnc(-n4nc(C)cc4C)n3N)CSC12)c1csc(N)n1 (stereo not drawn) [Compound II, 7-[2-(Syn-methoxyimino)-2-(2-aminothiazol-4-yl)acetamido]-3-[4-amino-5-(1-[3,5-dimethyl]pyrazolyl)-1,2,4-triazol-3-ylthiomethyl]-3-cephem-4-carboxylicacid] | 0.25 (≈ 0.413 µM) | > 128 | 0.5 (≈ 0.826 µM) | ≤ 0.12 | 2 (≈ 3.3 µM) | 0.5 (≈ 0.826 µM) | 1 (≈ 1.65 µM) | ≤ 0.12 | ≤ 0.12 | 0.25 (≈ 0.413 µM) | > 128 | 2 (≈ 3.3 µM) | 1 (≈ 1.65 µM) | ≤ 0.12 | 0.5 (≈ 0.826 µM) | 0.25 (≈ 0.413 µM) | 0.5 (≈ 0.826 µM) | 128 (≈ 211 µM) | ≤ 0.12 | 0.25 (≈ 0.413 µM) | MIC ([2]; Pseudomonas aeruginosa, 1244, 18 h): 64 µg/mL (≈ 106 µM); MIC ([11]; Pseudomonas aeruginosa G236, agar dilution, 35° C., 18 hours, nutrient agar): 128 µg/mL (≈ 211 µM); MIC [14]: 64 µg/mL (≈ 106 µM); Alive/Total Mice Tested, 7 Days After Infection (Escherichia coli 311 [15]; [17]): 0/5; Alive/Total Mice Tested, 7 Days After Infection (Escherichia coli 311 [15]; [18]): 5/5; Alive/Total Mice Tested, 7 Days After Infection (Escherichia coli 311 [15]; [19]): 5/5; Alive/Total Mice Tested, 7 Days After Infection (Escherichia coli 311 [15]; [20]): 5/5; MIC (Enterococcus SM77-15): > 128 µg/mL; MIC [16]: 2 µg/mL (≈ 3.3 µM) |
| CO/N=C(\C(=O)NC1C(=O)N2C(C(=O)O)=C(CSc3nnc(-n4nc(C)cc4-c4ccccc4)n3N)CSC12)c1csc(N)n1 (stereo not drawn) [Compound III, 7-[2-(Syn-methoxyimino)-2-(2-aminothiazol-4-yl)acetamido]-3-[4-amino-5-(1-[3-methyl-5-phenyl]pyrazolyl)-1,2,4-triazol-3-ylthiomethyl]-3-cephem-4-carboxylic acid] | 1 (≈ 1.5 µM) | > 128 | 2 (≈ 3 µM) | 0.5 (≈ 0.749 µM) | 2 (≈ 3 µM) | 4 (≈ 5.99 µM) | 4 (≈ 5.99 µM) | ≤ 0.12 | 0.5 (≈ 0.749 µM) | 1 (≈ 1.5 µM) | > 128 | 8 (≈ 12 µM) | 4 (≈ 5.99 µM) | 0.25 (≈ 0.374 µM) | 1 (≈ 1.5 µM) | 1 (≈ 1.5 µM) | 1 (≈ 1.5 µM) | 128 (≈ 192 µM) | 0.25 (≈ 0.374 µM) | 1 (≈ 1.5 µM) | MIC ([2]; 1244, Pseudomonas aeruginosa 12-4-4, agar dilution, 35° C., 18 hours, nutrient agar): 128 µg/mL (≈ 192 µM); MIC ([11]; Pseudomonas aeruginosa, G236, 18 h): > 128 µg/mL; MIC [14]: 32 µg/mL (≈ 47.9 µM); Alive/Total Mice Tested, 7 Days After Infection (Escherichia coli 311 [15]; [17]): 0/5; Alive/Total Mice Tested, 7 Days After Infection (Escherichia coli 311 [15]; [18]): 0/5; Alive/Total Mice Tested, 7 Days After Infection (Escherichia coli 311 [15]; [19]): 5/5; Alive/Total Mice Tested, 7 Days After Infection (Escherichia coli 311 [15]; [20]): 5/5; MIC (Enterococcus SM77-15): > 128 µg/mL; MIC [16]: 4 µg/mL (≈ 5.99 µM) |
